Data: US20210269483A1, “PEPTIDE COMPOUNDS” (ULTUPHARMA AB, priority 2018, published 2021)
≈ marks a conversion by molar mass, not a printed value. Read-outs that look alike come from different tables or passages of the source. Starred links: 1 amine or outer side, 2 acyl side, 3 side chain; linkers in the order of their positions; H or OH if unused. Positions of bridges follow the written chain, without caps; N, C: chain ends. Non-standard residues stand in square brackets, D forms with d. Residues, ends and D or L forms follow the SMILES beside them. X2 = CCCCCCC[C@H](CC(=O)[*:1])O[*:2]; Val(3-OH) = CC(C)(O)[C@H](N)C(=O)O; X1 = C/C=C(/N[*:1])C(=O)[*:2]; Dab = NCC[C@H](N)C(=O)O; Dap = NC[C@H](N)C(=O)O

How the values were obtained:
[1] = tested on: A. baumannii; assay type: cell-based, Acinetobacter baumannii
From the text: (§1) 2015. M7-A10. Methods for dilution antimicrobial susceptibility tests for bacteria that grow aerobically, 10th ed. Approved standard. CLSI, Wayne, Pa.).

[2] = tested on: S. aureus; assay type: cell-based, Staphylococcus aureus
From the text: as §1

[3] = tested on: E. cloacae; assay type: cell-based, Enterobacter cloacae
From the text: as §1
(§2) A) In the broth micro-dilution method, the test media were either AM3 Broth (BD Difco Ltd) mixed with phosphate buffered saline (PBS, Amresco LLC, Solon, USA) in 1:4 ratio (E. colt A. baumannii, Enterobacter cloacae, Klebsiella pneumonia and P. aeruginosa), AM3 Broth mixed with PBS in 1:1 ratio (S. aureus) or Malt Extract (ME; 15 g Malt Extract Dico Ltd. in 1000 mL deionized H2O; Aspergillus fumigatus). Prior to MIC-tests, the bacterial cell concentration/fungal spore concentration was adjusted to between 1 and 5×10^5 cells/spores per mL. […] Afterwards, suspensions of pathogen cells in the appropriate medium were dispensed to the wells of microtiter plates and the growth of pathogens were monitored after 16 to 20 h of incubation at 37° C. in the dark. Positive control comprised respective pathogen cells suspended in untreated sterile appropriate media without addition of compounds(s) and negative control comprised the medium only. The MIC was defined as the lowest concentration of each compound with no visible growth of pathogen. All MIC tests were performed in duplicate and/or triplicate and repeated at least twice.

[4] = tested on: K. pneumoniae; assay type: cell-based, Klebsiella pneumonia
From the text: as §1, §2

[5] = tested on: A. baumannii; assay type: cell-based, Acinetobacter baumannii; remark: listed apart in the source
From the text: as §1, §2

[6] = tested on: K. pneumoniae; assay type: cell-based, Klebsiella pneumonia; conditions: K. pneumoniae EN011, 1161486a (efflux-defective), method B
From the text: as §1

[7] = tested on: P. aeruginosa; assay type: cell-based, Pseudomonas aeruginosa; conditions: P. aeruginosa EN005, PAO750 (efflux-defective), method B
From the text: as §1

[8] = tested on: HepG2
Procedure: (§3) IC50, haemolysis rate and frequency of resistance (FoR, Table 4) was determined using standard protocols by different CROs.

[9] = Procedure: as §3
[10] = tested on: S. aureus; assay type: cell-based, Staphylococcus aureus; remark: listed apart in the source
From the text: as §1, §2

[11] = tested on: E. coli; assay type: cell-based, Escherichia coli
From the text: as §1, §2

[12] = tested on: carbapenem resistant strains of E. coil, P. aeruginosa and A. baumannii; assay type: cell-based
From the text: as §1

[13] = tested on: P. aeruginosa; assay type: cell-based, Pseudomonas aeruginosa
From the text: as §1, §2

[14] = tested on: E. coli; assay type: cell-based, Escherichia coli; conditions: E. coli EN003, D22 (lps mutant, hypersensitive), method B
From the text: as §1

[15] = tested on: As. fumigatus; assay type: cell-based, Aspergillus fumigatus
From the text: as §1, §2

C/C=C1/NC(=O)[C@H](CCN)NC(=O)[C@H](CC(C)C)NC(=O)[C@H](CN)NC(=O)C[C@@H](CCCCCCC)OC(=O)[C@H](CC(=O)O)NC(=O)[C@H](C(C)(C)O)NC(=O)[C@@H](Cc2ccccc2)NC(=O)[C@H](CN)NC(=O)[C@H]([C@@H](C)O)NC1=O [U747, cyclo-((R)-3-hydroxydecanoyl-L-DAPA-L-Leu-L-DABA-(E)-ABA-L-Thr-L-DAPA-D-Phe-L-OHVal-L-Asp)] ([Dap]L[Dab][X1]T[Dap][dF][Val(3-OH)]D; linker N-C via X2)
MIC [1]: 1 to 2 µg/mL
MIC ([1]; A. baumanii EN007, WT, method B): 8 µg/mL (≈ 7.16 µM)
MIC ([1]; A. baumanii EN016, BM4454 8, method B): 8 µg/mL (≈ 7.16 µM)
MIC ([1]; A. baumanii EN017, BM4652 (efflux-defective), method B): 8 µg/mL (≈ 7.16 µM)
MIC [2]: 64 µg/mL (≈ 57.3 µM)
MIC [3]: 2 to 4 µg/mL
MIC E. cloacae LMG2783T [3]: 2 µg/mL (≈ 1.79 µM)
MIC [4]: 2 to 4 µg/mL
MIC K. pneumonia LMG20218 [4]: 2 µg/mL (≈ 1.79 µM)
MIC [5]: 1 to 2 µg/mL
MIC A. baumannii LMG1041T [5]: 1 µg/mL (≈ 0.895 µM)
MIC [6]: 8 µg/mL (≈ 7.16 µM)
MIC [7]: 32 µg/mL (≈ 28.6 µM)
IC50 (HepG2) [8]: 50 µg/mL (≈ 44.8 µM)
toxicity (IC50) against human cell lines [8]: low toxicity
Haemolysis rate ([9]; 100 μM): 0.6%
haemolysis rates ([9]; in words): acceptable
MIC [10]: >32 µg/mL
MIC S. aureus LMG15975 [10]: >32 µg/mL
MIC [11]: 2 to 4 µg/mL
MIC E. coli LMG15862 [11]: 2 µg/mL (≈ 1.79 µM)
MICs against carbapenem resistant strains, highest [12]: 2 to 4 µg/mL
MICs against carbapenem resistant strains, lowest [12]: 0.5 to 1 µg/mL
MIC [13]: 8 to 16 µg/mL
MIC P. aeruginosa LMG6395 [13]: 8 µg/mL (≈ 7.16 µM)
MIC [14]: 4 µg/mL (≈ 3.58 µM)
MIC [15]: 16 to 32 µg/mL
